Assay [1] addresses T1, Frizzled-7 (Homo sapiens, UniProt O75084). As to conditions: CHO.
Description: Binding affinity to recombinant human Frizzled-7 (Gln33 to Leu185 residues)/human IgG1 chimeric protein expressed in CHO cells assessed as association rate constant by SPR assay
For assay [2], the target named is T1, Frizzled-7. It counts as cell-based. To be noted: cho.
Assay [3] addresses T1, Frizzled-7. The assay can be described thus: biochemical. It counts as cell-based, CHO. To be noted: read-out: Kd.

The structures appear in SMILES notation. Bridge positions count the residues as written; N and C are the ends. Square brackets hold non-standard residues; d marks the D form. Peptide text beside a SMILES is read from it. I, II: the chains in the order shown. Phe(4-CF3) = N[C@@H](Cc1ccc(C(F)(F)F)cc1)C(=O)O; Phe(3-Cl) = N[C@@H](Cc1cccc(Cl)c1)C(=O)O; Phe(4-Cl) = N[C@@H](Cc1ccc(Cl)cc1)C(=O)O; Phe(4-Me) = Cc1ccc(C[C@H](N)C(=O)O)cc1

Turning to `CSCC[C@H](NC(=O)[C@@H](NC(=O)[C@H](Cc1cnc[nH]1)NC(=O)[C@H](CSSC[C@H](NC(=O)[C@H](Cc1c[nH]c2ccccc12)NC(=O)[C@H](Cc1ccccc1)NC(=O)[C@H](CCC(=O)O)NC(=O)[C@H](CC(C)C)NC(=O)[C@H](CC(=O)O)NC(=O)[C@H](CC(=O)O)NC(=O)[C@H](CO)NC(C)=O)C(=O)N[C@@H](Cc1cnc[nH]1)C(=O)N[C@H](C(=O)N[C@@H](CCSC)C(=O)N[C@@H](Cc1ccc(C(F)(F)F)cc1)C(N)=O)C(C)C)NC(=O)[C@H](Cc1c[nH]c2ccccc12)NC(=O)[C@H](Cc1ccccc1)NC(=O)[C@H](CCC(=O)O)NC(=O)[C@H](CC(C)C)NC(=O)[C@H](CC(=O)O)NC(=O)[C@H](CC(=O)O)NC(=O)[C@H](CO)NC(C)=O)C(C)C)C(=O)N[C@@H](Cc1ccc(C(F)(F)F)cc1)C(N)=O` (I: Ac-SDDLEFWCHVM[Phe(4-CF3)]-NH2 / II: Ac-SDDLEFWCHVM[Phe(4-CF3)]-NH2; disulfide I:8-II:8), on Frizzled-7 [1], the Ka came to 1.45 ×10⁵ /M/s. Besides, the Kd on Frizzled-7 [2] was determined as 1.9 ×10⁻³ /s; at Frizzled-7 [3] it was 13.1 nM.

On to `CSCC[C@H](NC(=O)[C@@H](NC(=O)[C@H](Cc1cnc[nH]1)NC(=O)[C@H](CSSC[C@H](NC(=O)[C@H](Cc1c[nH]c2ccccc12)NC(=O)[C@H](Cc1ccccc1)NC(=O)[C@H](CCC(=O)O)NC(=O)[C@H](CC(C)C)NC(=O)[C@H](CC(=O)O)NC(=O)[C@H](CC(=O)O)NC(=O)[C@H](CO)NC(C)=O)C(=O)N[C@@H](Cc1cnc[nH]1)C(=O)N[C@H](C(=O)N[C@@H](CCSC)C(=O)N[C@@H](Cc1ccc(Cl)cc1)C(N)=O)C(C)C)NC(=O)[C@H](Cc1c[nH]c2ccccc12)NC(=O)[C@H](Cc1ccccc1)NC(=O)[C@H](CCC(=O)O)NC(=O)[C@H](CC(C)C)NC(=O)[C@H](CC(=O)O)NC(=O)[C@H](CC(=O)O)NC(=O)[C@H](CO)NC(C)=O)C(C)C)C(=O)N[C@@H](Cc1ccc(Cl)cc1)C(N)=O` (I: Ac-SDDLEFWCHVM[Phe(4-Cl)]-NH2 / II: Ac-SDDLEFWCHVM[Phe(4-Cl)]-NH2; disulfide I:8-II:8), for which, on Frizzled-7 [1], the Ka is 9.3 ×10⁵ /M/s. Besides, the Kd on Frizzled-7 [2] was 0.82 ×10⁻³ /s; on Frizzled-7 [3], 0.88 nM.

At Frizzled-7 [1], `CSCC[C@H](NC(=O)[C@@H](NC(=O)[C@H](Cc1cnc[nH]1)NC(=O)[C@H](CSSC[C@H](NC(=O)[C@H](Cc1c[nH]c2ccccc12)NC(=O)[C@H](Cc1ccccc1)NC(=O)[C@H](CCC(=O)O)NC(=O)[C@H](CC(C)C)NC(=O)[C@H](CC(=O)O)NC(=O)[C@H](CC(=O)O)NC(=O)[C@H](CO)NC(C)=O)C(=O)N[C@@H](Cc1cnc[nH]1)C(=O)N[C@H](C(=O)N[C@@H](CCSC)C(=O)N[C@@H](Cc1ccc(C)cc1)C(N)=O)C(C)C)NC(=O)[C@H](Cc1c[nH]c2ccccc12)NC(=O)[C@H](Cc1ccccc1)NC(=O)[C@H](CCC(=O)O)NC(=O)[C@H](CC(C)C)NC(=O)[C@H](CC(=O)O)NC(=O)[C@H](CC(=O)O)NC(=O)[C@H](CO)NC(C)=O)C(C)C)C(=O)N[C@@H](Cc1ccc(C)cc1)C(N)=O` (I: Ac-SDDLEFWCHVM[Phe(4-Me)]-NH2 / II: Ac-SDDLEFWCHVM[Phe(4-Me)]-NH2; disulfide I:8-II:8) came in with a Ka of 10.2 ×10⁵ /M/s. The Kd at Frizzled-7 [2] amounted to 0.98 ×10⁻³ /s; on Frizzled-7 [3], 0.97 nM.

On Frizzled-7 [1], `CSCC[C@H](NC(=O)[C@@H](NC(=O)[C@H](Cc1cnc[nH]1)NC(=O)[C@H](CSSC[C@H](NC(=O)[C@H](Cc1c[nH]c2ccccc12)NC(=O)[C@H](CC(C)C)NC(=O)[C@H](CCC(=O)O)NC(=O)[C@H](CC(C)C)NC(=O)[C@H](CC(=O)O)NC(=O)[C@H](CC(=O)O)NC(=O)[C@H](CO)NC(C)=O)C(=O)N[C@@H](Cc1cnc[nH]1)C(=O)N[C@H](C(=O)N[C@@H](CCSC)C(=O)N[C@@H](Cc1ccc(O)cc1)C(N)=O)C(C)C)NC(=O)[C@H](Cc1c[nH]c2ccccc12)NC(=O)[C@H](CC(C)C)NC(=O)[C@H](CCC(=O)O)NC(=O)[C@H](CC(C)C)NC(=O)[C@H](CC(=O)O)NC(=O)[C@H](CC(=O)O)NC(=O)[C@H](CO)NC(C)=O)C(C)C)C(=O)N[C@@H](Cc1ccc(O)cc1)C(N)=O` (I: Ac-SDDLELWCHVMY-NH2 / II: Ac-SDDLELWCHVMY-NH2; disulfide I:8-II:8) registered a Ka of 76.5 ×10⁵ /M/s. Further, the results for the Kd on Frizzled-7 [2] and at Frizzled-7 [3] were 0.6 ×10⁻³ /s and 0.079 nM, respectively.

Consider `CC[C@H](C)[C@H](NC(=O)[C@H](Cc1cnc[nH]1)NC(=O)[C@H](CSSC[C@H](NC(=O)[C@H](Cc1c[nH]c2ccccc12)NC(=O)[C@H](Cc1cccc(Cl)c1)NC(=O)[C@H](CCC(=O)O)NC(=O)[C@H](CC(C)C)NC(=O)[C@H](CC(=O)O)NC(=O)[C@H](CC(=O)O)NC(=O)[C@H](CO)NC(C)=O)C(=O)N[C@@H](Cc1cnc[nH]1)C(=O)N[C@H](C(=O)N[C@@H](CCSC)C(=O)N[C@@H](Cc1ccc(O)cc1)C(N)=O)[C@@H](C)CC)NC(=O)[C@H](Cc1c[nH]c2ccccc12)NC(=O)[C@H](Cc1cccc(Cl)c1)NC(=O)[C@H](CCC(=O)O)NC(=O)[C@H](CC(C)C)NC(=O)[C@H](CC(=O)O)NC(=O)[C@H](CC(=O)O)NC(=O)[C@H](CO)NC(C)=O)C(=O)N[C@@H](CCSC)C(=O)N[C@@H](Cc1ccc(O)cc1)C(N)=O` (I: Ac-SDDLE[Phe(3-Cl)]WCHIMY-NH2 / II: Ac-SDDLE[Phe(3-Cl)]WCHIMY-NH2; disulfide I:8-II:8), for which, at Frizzled-7 [1], the Ka is 68.4 ×10⁵ /M/s. Moreover, the Kd at Frizzled-7 [2] is 0.57 ×10⁻³ /s; at Frizzled-7 [3] it was 0.083 nM.

Take `CSCC[C@H](NC(=O)[C@@H](NC(=O)[C@H](Cc1cnc[nH]1)NC(=O)[C@H](CSSC[C@H](NC(=O)[C@H](Cc1c[nH]c2ccccc12)NC(=O)[C@H](Cc1cccc(Cl)c1)NC(=O)[C@H](CCC(=O)O)NC(=O)[C@H](CC(C)C)NC(=O)[C@H](CC(=O)O)NC(=O)[C@H](CC(=O)O)NC(=O)[C@H](CO)NC(C)=O)C(=O)N[C@@H](Cc1cnc[nH]1)C(=O)N[C@H](C(=O)N[C@@H](CCSC)C(=O)N[C@@H](Cc1ccc(O)cc1)C(N)=O)C(C)C)NC(=O)[C@H](Cc1c[nH]c2ccccc12)NC(=O)[C@H](Cc1cccc(Cl)c1)NC(=O)[C@H](CCC(=O)O)NC(=O)[C@H](CC(C)C)NC(=O)[C@H](CC(=O)O)NC(=O)[C@H](CC(=O)O)NC(=O)[C@H](CO)NC(C)=O)C(C)C)C(=O)N[C@@H](Cc1ccc(O)cc1)C(N)=O` (I: Ac-SDDLE[Phe(3-Cl)]WCHVMY-NH2 / II: Ac-SDDLE[Phe(3-Cl)]WCHVMY-NH2; disulfide I:8-II:8): the Ka at Frizzled-7 [1] worked out at 66.3 ×10⁵ /M/s. The Kd worked out at 0.63 ×10⁻³ /s on Frizzled-7 [2] and 0.1 nM at Frizzled-7 [3].

On to `CSCC[C@H](NC(=O)[C@@H](NC(=O)[C@H](Cc1cnc[nH]1)NC(=O)[C@H](CSSC[C@H](NC(=O)[C@H](Cc1c[nH]c2ccccc12)NC(=O)[C@H](Cc1ccc(Cl)cc1)NC(=O)[C@H](CCC(=O)O)NC(=O)[C@H](CC(C)C)NC(=O)[C@H](CC(=O)O)NC(=O)[C@H](CC(=O)O)NC(=O)[C@H](CO)NC(C)=O)C(=O)N[C@@H](Cc1cnc[nH]1)C(=O)N[C@H](C(=O)N[C@@H](CCSC)C(=O)N[C@@H](Cc1ccc(O)cc1)C(N)=O)C(C)C)NC(=O)[C@H](Cc1c[nH]c2ccccc12)NC(=O)[C@H](Cc1ccc(Cl)cc1)NC(=O)[C@H](CCC(=O)O)NC(=O)[C@H](CC(C)C)NC(=O)[C@H](CC(=O)O)NC(=O)[C@H](CC(=O)O)NC(=O)[C@H](CO)NC(C)=O)C(C)C)C(=O)N[C@@H](Cc1ccc(O)cc1)C(N)=O` (I: Ac-SDDLE[Phe(4-Cl)]WCHVMY-NH2 / II: Ac-SDDLE[Phe(4-Cl)]WCHVMY-NH2; disulfide I:8-II:8), for which the Ka on Frizzled-7 [1] came out at 16.5 ×10⁵ /M/s. Further, the Kd on Frizzled-7 [2] came out at 1.71 ×10⁻³ /s; on Frizzled-7 [3], 1.04 nM.

On Frizzled-7 [1], `CSCC[C@H](NC(=O)[C@@H](NC(=O)[C@H](Cc1cnc[nH]1)NC(=O)[C@H](CSSC[C@H](NC(=O)[C@H](Cc1c[nH]c2ccccc12)NC(=O)[C@H](Cc1ccccc1)NC(=O)[C@H](CCCCN)NC(=O)[C@H](CC(C)C)NC(=O)[C@H](CC(=O)O)NC(=O)[C@H](CC(=O)O)NC(=O)[C@H](CO)NC(C)=O)C(=O)N[C@@H](Cc1cnc[nH]1)C(=O)N[C@H](C(=O)N[C@@H](CCSC)C(=O)N[C@@H](Cc1ccc(O)cc1)C(N)=O)C(C)C)NC(=O)[C@H](Cc1c[nH]c2ccccc12)NC(=O)[C@H](Cc1ccccc1)NC(=O)[C@H](CCCCN)NC(=O)[C@H](CC(C)C)NC(=O)[C@H](CC(=O)O)NC(=O)[C@H](CC(=O)O)NC(=O)[C@H](CO)NC(C)=O)C(C)C)C(=O)N[C@@H](Cc1ccc(O)cc1)C(N)=O` (I: Ac-SDDLKFWCHVMY-NH2 / II: Ac-SDDLKFWCHVMY-NH2; disulfide I:8-II:8) displayed a Ka of 85.6 ×10⁵ /M/s. For the same compound, the Kd on Frizzled-7 [2] was found to be 1.33 ×10⁻³ /s; on Frizzled-7 [3], 0.157 nM.

Consider `CSCC[C@H](NC(=O)[C@@H](NC(=O)[C@H](Cc1cnc[nH]1)NC(=O)[C@H](CSSC[C@H](NC(=O)[C@H](Cc1c[nH]c2ccccc12)NC(=O)[C@H](CC(C)C)NC(=O)[C@H](CCCCN)NC(=O)[C@H](CC(C)C)NC(=O)[C@H](CC(=O)O)NC(=O)[C@H](CC(=O)O)NC(=O)[C@H](CO)NC(C)=O)C(=O)N[C@@H](Cc1cnc[nH]1)C(=O)N[C@H](C(=O)N[C@@H](CCSC)C(=O)N[C@@H](Cc1ccc(O)cc1)C(N)=O)C(C)C)NC(=O)[C@H](Cc1c[nH]c2ccccc12)NC(=O)[C@H](CC(C)C)NC(=O)[C@H](CCCCN)NC(=O)[C@H](CC(C)C)NC(=O)[C@H](CC(=O)O)NC(=O)[C@H](CC(=O)O)NC(=O)[C@H](CO)NC(C)=O)C(C)C)C(=O)N[C@@H](Cc1ccc(O)cc1)C(N)=O` (I: Ac-SDDLKLWCHVMY-NH2 / II: Ac-SDDLKLWCHVMY-NH2; disulfide I:8-II:8), for which the Ka at Frizzled-7 [1] was determined as 55.6 ×10⁵ /M/s. Moreover, the figures for the Kd on Frizzled-7 [2] and at Frizzled-7 [3] were 0.58 ×10⁻³ /s and 0.142 nM, respectively.

The record behind these values is ChEMBL document CHEMBL4373723 (J Med Chem, 2019).
